Patent US10596139B2 (CHASE PHARMACEUTICALS CORPORATION, priority 2015, dated 2020)

What was measured:
Male Swiss mice [1] = experiment: T-maze continuous alternation task (T-CAT) with oxybutynin and xanomeline; assay type: in vivo
Excerpt: Evaluation of Cognition with Oxybutynin and Xanomeline in the T-maze Alternation Task in Mice
The T-maze continuous alternation task (T-CAT) is useful as model for studying compounds with cognitive enhancing properties. The T-maze consists of 2 choice arms and 1 start arm mounted to a square center. Manual doors are provided to close specific arms during the force choice alternation task.
Mice were randomly assigned to one of the different experimental treatment groups. Each animal was identified by its group name, cage number, series (day) of experiment, and number (1 to 10) written with permanent ink on the tail.
The T-maze apparatus is made of gray Plexiglas with a main stem (55 cm long[…]10 cm wide[…]20 cm high) and two arms (30 cm long[…]10 cm wide[…]20 cm high) positioned at 90 degree angle relative to the main stem. A start box (15 cm long[…]10 cm wide) is separated from the main stem by a guillotine door. Horizontal doors are also provided to close specific arms during the force choice alternation task. […]
The percentage of alternation over the 14 free-choice trials was determined for each mouse and was used as an index of working memory performance. […]
Analysis of variance (ANOVA) was performed on the results. […] The drug-induced improvement of memory was calculated by setting the respective response of the saline/vehicle as 100% and that of the test group as 0% reversion. […]

Male Swiss mice [2] = experiment: Antagonism of xanomeline-induced diarrhea in mice by oxybutynin (fecal pellet count); assay type: in vivo; conditions: oxybutynin i.p. 0.3 to 30 mg/kg, 30 minutes before xanomeline 30 mg/kg
Method: Male Swiss mice (4-6 weeks old), N=10 per treatment group were used.
Mice were placed individually in cages without any bedding materials. During the experiment the number of fecal pellets was counted at different time-points as outlined below:
T0: administration of oxybutinin.
T30 min: administration of vehicle or xanomeline.
T 30 min to T 2.5 h: counting of accumulated fecal pellets excreted.
T+2.5 h to T+4.5 h: counting of accumulated fecal pellets excreted.
The total number of fecal pellets for each mouse was counted over time. An analysis of variance (ANOVA) was performed on the results. Fisher's Protected Least Significant Difference was used for pairwise comparisons. The p value≤0.05 were considered significant. Grubbs' test (http//www at graphpad.com/quickcalcs/Grubbs1.cfm) was used to detect outliers for each parameter in each experimental group.

[3] = tested on: patients with Alzheimer disease; conditions: cited from earlier work
[4] = tested on: healthy volunteers and Alzheimer's patients; conditions: cited from earlier work
Male Swiss mice [5] = experiment: Dose-response to xanomeline in a mouse model of diarrhea (fecal pellet count); assay type: in vivo; conditions: xanomeline i.p. 0.3 to 30 mg/kg
Excerpt: Study 1—Establishment of the Dose-Response to Xanomeline in a Mouse Model of Diarrhea.
Male Swiss mice (4-6 weeks old), N=10 per treatment group were used, and treated intra-peritoneally (i.p.) with either vehicle (vehicle group) or increasing doses of xanomeline, a representative muscarinic agonist. Mice were randomly assigned to one of two experimental groups (vehicle; or increasing doses of xanomeline). Each animal was identified by its group name, cage number, series (day) of experiment, and number (1 to 10) written with permanent ink on the tail.
Mice were placed individually in cages without any bedding materials. During the experiment the number of fecal pellets were counted at different time-points, starting one hour before the time of the administration of the test compound (T0), as outlined below:
T−1 h to T0: counting of the accumulated fecal pellets excreted.
T0: administration of the test compound.
T0 to T+2 h: counting of the accumulated fecal pellets excreted.
T+2 h to T+4 h: counting of the accumulated fecal pellets excreted.
The total number of fecal pellets for each mouse was counted over time. An analysis of variance (ANOVA) was performed on the results. Fisher's Protected Least Significant Difference was used for pairwise comparisons; p values≤0.05 were considered significant. […]

Row | Compound | ability to perform the T-maze test after pretreatment (Male Swiss mice [1]; i.p. oxybutynin pretreatment 30 minutes before xanomeline) | antagonism of diarrhea induced by xanomeline (Male Swiss mice [2]) | cognitive and behavioral symptoms of Alzheimer disease ([3]; compared to placebo, 6 months) | side effects (bradycardia, gastro-intestinal distress, excessive salivation, sweating) ([3]; patients with Alzheimer disease) | discontinuation rate ([4]; Alzheimer's patient population) | dose tolerated by some individuals ([4]; oral, taken with food) [mg three times/day] | maximal tolerated dose ([4]; orally administered) [mg three times/day] | maximal tolerated dose per day ([4]; orally administered) [mg/day] | ability to perform the T-maze test at the higher dose (Male Swiss mice [1]; i.p. xanomeline, higher dose (dose that caused diarrhea)) | diarrhea (number of fecal pellets) (Male Swiss mice [5])
1 | CCN(CC)CC#CCOC(=O)C(O)(c1ccccc1)C1CCCCC1 (stereo not shown) [oxybutynin, 4-diethylaminobut-2-ynyl 2-cyclohexyl-2-hydroxy-2-phenylethanoate] | restored the animals' ability to perform the T-maze test | dose-dependently antagonized the diarrhea induced by xanomeline | – | – | – | – | – | – | – | –
2 | CCCCCCOc1nsnc1C1=CCCN(C)C1 [xanomeline, 3-(4-hexyloxy-1,2,5-thiadiazol-3-yl)-1-methyl-5,6-dihydro-2H-pyridine] | – | – | significantly improve cognitive and behavioral symptoms of Alzheimer disease | dose-dependent unacceptable side effects | higher than 50% | 110 | 75 | 225 | too sick to perform the test | dose-dependently causes diarrhea
